Source: ChEMBL document CHEMBL1147913, “Na+-glucose cotransporter (SGLT) inhibitory flavonoids from the roots of Sophora flavescens” (Bioorg Med Chem, 2007)

Assays:
[1] = biological target: T1, Sodium/glucose cotransporter 2 (Homo sapiens) (UniProt P31639); experiment: Inhibition of human SGLT2 expressed in COS1 cells assessed as [14C]methyl-alpha-D-glucopyranoside uptake at 50 uM; type: cell-based; conditions: COS-1
T1 sequence (whole entry): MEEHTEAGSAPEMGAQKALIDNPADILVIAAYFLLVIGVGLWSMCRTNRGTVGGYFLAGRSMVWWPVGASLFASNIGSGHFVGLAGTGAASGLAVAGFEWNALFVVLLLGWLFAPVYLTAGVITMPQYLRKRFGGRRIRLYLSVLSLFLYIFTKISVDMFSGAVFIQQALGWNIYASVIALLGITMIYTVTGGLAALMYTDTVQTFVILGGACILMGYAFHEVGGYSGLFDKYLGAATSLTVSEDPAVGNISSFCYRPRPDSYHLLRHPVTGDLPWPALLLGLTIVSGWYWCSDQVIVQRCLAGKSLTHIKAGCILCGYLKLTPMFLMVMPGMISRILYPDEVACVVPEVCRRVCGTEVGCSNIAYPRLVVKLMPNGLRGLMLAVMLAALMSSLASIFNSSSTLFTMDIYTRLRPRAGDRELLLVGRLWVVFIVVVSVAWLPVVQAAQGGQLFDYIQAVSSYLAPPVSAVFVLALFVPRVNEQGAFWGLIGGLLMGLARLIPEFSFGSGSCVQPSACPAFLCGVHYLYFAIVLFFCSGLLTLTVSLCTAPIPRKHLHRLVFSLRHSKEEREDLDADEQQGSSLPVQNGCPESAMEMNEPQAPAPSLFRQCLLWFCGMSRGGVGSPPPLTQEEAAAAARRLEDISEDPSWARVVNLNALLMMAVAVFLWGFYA

[2] = biological target: T2, Sodium/glucose cotransporter 1 (Homo sapiens) (UniProt P13866); experiment: Inhibition of human SGLT1 expressed in COS1 cells assessed as [14C]methyl-alpha-D-glucopyranoside uptake at 50 uM; type: cell-based; conditions: COS-1
T2 sequence (whole entry): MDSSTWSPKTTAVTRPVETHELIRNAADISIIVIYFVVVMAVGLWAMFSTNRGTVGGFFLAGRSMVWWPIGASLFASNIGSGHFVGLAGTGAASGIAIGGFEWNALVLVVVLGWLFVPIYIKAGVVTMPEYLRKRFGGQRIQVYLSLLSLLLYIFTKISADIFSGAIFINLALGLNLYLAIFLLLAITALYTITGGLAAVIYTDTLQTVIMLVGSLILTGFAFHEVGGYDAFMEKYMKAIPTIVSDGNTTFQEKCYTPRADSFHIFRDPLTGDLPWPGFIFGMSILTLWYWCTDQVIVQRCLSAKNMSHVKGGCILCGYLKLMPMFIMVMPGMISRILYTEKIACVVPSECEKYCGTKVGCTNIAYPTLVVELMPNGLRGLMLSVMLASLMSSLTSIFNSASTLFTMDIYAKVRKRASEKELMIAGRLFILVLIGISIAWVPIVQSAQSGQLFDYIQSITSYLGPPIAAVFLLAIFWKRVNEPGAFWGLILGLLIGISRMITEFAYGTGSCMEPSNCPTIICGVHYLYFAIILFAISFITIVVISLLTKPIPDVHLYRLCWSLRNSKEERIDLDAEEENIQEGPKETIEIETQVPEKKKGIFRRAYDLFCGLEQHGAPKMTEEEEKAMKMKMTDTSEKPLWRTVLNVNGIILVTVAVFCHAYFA

[3] = biological target: T3, Sodium/glucose cotransporter 2 (Homo sapiens, UniProt P31639); experiment: Inhibition of human SGLT2 expressed in COS1 cells assessed as [14C]methyl-alpha-D-glucopyranoside uptake; type: cell-based, COS-1
T3 sequence (P31639 whole entry): T1 sequence (whole entry)

inhibition [1]	inhibition [2]	IC50 [3]	Compound
75.4%	< 25%	–	COc1ccc(-c2coc3cc(O)ccc3c2=O)cc1
66.5%	< 25%	–	Oc1ccc2c(c1)OC[C@H]1c3cc4c(cc3O[C@@H]21)OCO4
100%	99.2%	4100 nM	C=C(C)[C@H](CC=C(C)C)Cc1c(O)cc(O)c2c1O[C@H](c1ccc(O)cc1O)CC2=O [SOPHORAFLAVANONE G]
87.3%	58.4%	–	C=C(C)C(CC=C(C)C)Cc1c(O)cc(OC)c2c1O[C@H](c1ccc(O)cc1O)[C@H](O)C2=O (stereo partly drawn)
< 25%	< 25%	–	COc1ccc2c(c1)OC[C@H]1c3cc4c(cc3O[C@@H]21)OCO4
99.7%	98.8%	1700 nM	C=C(C)C(CC=C(C)C)Cc1c(O)cc(OC)c2c1O[C@H](c1ccc(O)cc1O)CC2=O (stereo partly drawn) [KURARINONE]
100%	71.1%	–	C=C(C)[C@H](CC=C(C)C)Cc1c(O)cc(OC)c(C(=O)/C=C/c2ccc(O)cc2O)c1O
43.7%	29.7%	–	C=C(C)[C@H](CCC(C)(C)O)Cc1c(O)cc(OC)c2c1O[C@H](c1ccc(O)cc1O)[C@H](O)C2=O
